Assay results reported in patent publication US12150919B2 (priority 2023, dated 2024).

Experiments:
Type in all cases: in vivo, white mice of Swiss strain
[1] = tested on: doxorubicin-induced skin ulcers; assay: hydroxyproline concentration in skin of mice with doxorubicin-induced ulcers; conditions: doxorubicin-induced skin ulcer model; at the end of the study (21 days of application)
Description: (§1) Research indicators during burn treatment including: (A) macromorphological index, (B) quantification of hydroxyproline concentration in damaged tissue, and (C) micromorphic index; wherein: • (A) macromorphological index: • Injury status at the burn: swelling, heat, redness, edema observed by eye and recorded by digital camera; • Measure the burn area at 7, 14, and 21 days after causing the burn.
(§2) Evaluation of the scar healing effect of the composition 100 and composition 200 in experiments. The model was based on previous studies of doxorubicin-induced skin ulcers in white mice of Swiss strain, both breeds, healthy, weight 30-35 g. White mice of both breeds of both breeds were randomly divided into 5 lots, each batch of 10 animals as follows: • Lot 1: Intradermal injection of physiological saline, no applying DMSO/composition 100/composition 200; • Lot 2: Intradermal injection of doxorubicin 1 mg/0.5 ml, to heal the ulcer naturally; • Lot 3: Intradermal injection of doxorubicin 1 mg/0.5 ml, for ulcer progression for 7 days. […]
(§3) Research indicators during scar healing including: (A) macromorphological index, (B) quantification of hydroxyproline concentration in damaged tissue, and (C) micromorphic index; all was samed as the burn treatment research experimental.

[2] = tested on: doxorubicin-induced skin ulcers; assay: doxorubicin-induced skin ulcers in white mice: ulcer area and macroscopic state
Description: as §1
Evaluation of the scar healing effect of the composition 100 and composition 200 in experiments. The model was based on previous studies of doxorubicin-induced skin ulcers in white mice of Swiss strain, both breeds, healthy, weight 30-35 g. White mice of both breeds of both breeds were randomly divided into 5 lots, each batch of 10 animals as follows: • Lot 1: Intradermal injection of physiological saline, no applying DMSO/composition 100/composition 200; • Lot 2: Intradermal injection of doxorubicin 1 mg/0.5 ml, to heal the ulcer naturally; • Lot 3: Intradermal injection of doxorubicin 1 mg/0.5 ml, for ulcer progression for 7 days. Then, drop 0.1 ml of DMSO on the ulcerated area, 2 times a day, use within 21 days; • Lot 4: Intradermal injection of doxorubicin 1 mg/0.5 ml, for ulcer progression for 7 days. Then, apply the composition 100 with dose of 0.1 ml/ulcer/time, 2 times/day, used for 21 days; and • Lot 5: Intradermal injection of doxorubicin 1 mg/0.5 ml, for ulcer progression for 7 days. Then, apply the composition 200 with dose of 0.1 ml/ulcer/time, with a frequency of twice daily, and used for 21 days.
as §3

[3] = tested on: doxorubicin-induced skin ulcers; assay: micromorphic index of the skin at the ulcer; conditions: mice
Description: as §1, §2, §3

C[S+](C)[O-] [DMSO, dimethyl sulfoxide]
Hydroxyproline concentrations in mouse skin (x ± SD) [1]: 15.04 ± 2.35 mg/g skin
Area of skin ulcers After 7 days (x ± SD) ([2]; 0.1 ml on ulcer 2 times a day, after 7 days): 50.13 ± 12.55 mm^2
Area of skin ulcers After 14 days Median (quartile) ([2]; 0.1 ml on ulcer 2 times a day, after 14 days, median): 7.13 mm^2
Area of skin ulcers After 21 days Median (quartile) ([2]; 0.1 ml on ulcer 2 times a day, after 21 days, median): 0 mm^2
macroscopic state of the ulcerated skin area ([2]; at the end of the study): significantly reduced and almost completely healed skin ulcers
Area of skin ulcers Before applied (x ± SD) ([2]; before applied (baseline)): 75.71 ± 14.02 mm^2
micromorphic images of the skin at the ulcer [3]: the skin has regenerated to form the epidermis, no formation of skin-dependent glands, less blood vessels
